# Measurements reported in US6972287B1, “Method of inhibiting amyloid protein aggregation and imaging amyloid deposits” (Pfizer Inc., priority 1999, dated 2005).
# “And” between values parts separate entries of the source, which are not always exact repeats. Equal entries are not always repeated.
# Experiments:
# Format in all cases: biochemical
# [1] = biological target: T1, Aβ (1-40) peptide (Homo sapiens, UniProt P05067); test: BAPA (Beta-Amyloid Peptide Aggregation, pH 6.0, filtration); details: Aβ (1-40) 33 μM, pH 6.0, 2 to 4 hours at room temperature; replicate values; letter = synthetic lot
# T1 construct: 10 μL 0.5 mg/mL Aβ (1-40) peptide in 20% HFIP
# Method: Each 96-well plate can therefore accommodate 11 samples+1 Congo Red control (0.039-5 μM final in 2-fold steps). • 4) Seal the plate with aluminum film and incubate for 10 minutes on ice. • 5) Raise the temperature to 37° C. and incubate for 3 to 5 hours (depends on the lot of the peptide). • 6) Remove the aluminum film and add 250 μL/well of 5 μM thioflavin T (ThT) [T-3516, Sigma-Aldrich] in 50 mM glycine-NaOH, pH 8.5. […] The purpose of this assays is to provide a higher volume method of assaying the amount of beta amyloid aggregation using an endpoint assay based on filtration. In this assay, hexafluoroisopropanol (HFIP) is used to break down the initial amyloid peptide to a monomer state and use a concentration of 33 μM which is high enough so that aggregation will occur at pH 6.0 in several hours. Methods: […] Then, we incubate for 2 to 4 hours at room temperature. […] We wash the filter plate with 100 μL of the same phosphate buffer. Aggregation was detected on a Microbeta counter after impregnating the filters with Meltilex (1450-441) and is corrected for background.
# [2] = biological target: T2, Aβ(1-40) (Homo sapiens, UniProt P05067); test: BASSR (Beta-Amyloid Self-Seeding Radioassay), inhibitors of self-seeded amyloid fibril growth
# T2 construct: […]; purchased Bachem, Torrance, Calif
# Method: BASSR (Beta-Amyloid Self-Seeding Radioassay)
# (§1) An assay for inhibitors of self-seeded amyloid fibril growth
# Assay Buffer—50 mM sodium phosphate, pH 7.5, 100 mM NaCl, 0.02% NaN3, 1 M urea (filter and store at 4° C.).
# (§2) Typically, the solution should be stored until no lag phase is seen in the assay.
# ^125I-labeled Aβ(1-40)—150K-350K cpm/μL in 100% acetonitrile—0.1% trifluoroacetic acid (TFA)—1% β-mercaptoethanol (aliquots stored at −20° C.). ^125I-labeled Aβ(1-40) can be made in accordance with the procedure set forth by H. LeVine, III in Neurobiol. Aging, 16, 755, (1995), which is hereby incorporated by reference, or this reagent may be purchased from Amersham, Arlington Heights, Ill.
# The following are the amounts of the components of the reaction mixture sufficient for 50 assay wells:
# • 1) Prepare reaction mixture above by mixing components and storing on ice. • 2) Pipet 14.5 μL of reaction mixture into each of 50 wells on a polypropylene U-bottom 96-well microtiter plate on ice. (Costar 3794). • 3) Add 1.7 μL of diluted compound to be tested to each well in a column of eight, including solvent control. Serial 3-fold dilutions from 1 mM (100 μM final) in assay buffer−urea=7 dilutions+zero. Each 96-well plate can therefore accommodate 11 samples+1 Congo Red control (0.039-5 μM final in 2-fold steps). • 4) Seal the plate with aluminum film (Beckman 538619) and incubate for 10 minutes on ice. • 5) Raise the temperature to 37° C. and incubate for 3 to 5 hours (depending on the lot of the peptide). • 6) Remove the aluminum film and add 200 μL/well of ice cold assay buffer with urea, collecting the radiolabeled fibrils by vacuum filtration through 0.2 μm pore size GVWP filters in 96-well plates (Millipore MAGV N22, Bedford, Mass.). Determine the radioactivity of the filters using standard methods well-known to those skilled in the art. BASST (Beta-Amyloid Self-Seeding, Thioflavin T)
# [3] = biological target: T2, Aβ(1-40); test: BASST (Beta-Amyloid Self-Seeding, Thioflavin T), inhibitors of self-seeded amyloid fibril growth; details: read-out: BASST (IC50 = μM)
# Method: as §1
# Assay Buffer—50 mM sodium phosphate, pH 7.5, 100 mM NaCl, 0.02% NaN3, 1 M urea (filter and store at 4° C.)
# as §2
# The following are the amounts of the components of the reaction mixture that result in each of the 50 assay wells:
# • 1) Prepare the reaction mix above by mixing the components and storing on ice. • 2) Pipet 14.5 μL of reaction mixture into each of 50 wells of a polystyrene U-bottom 96-well microtiter plate (Corning 25881-96) on ice. • 3) Add 1.7 μL of diluted compound to be tested to each well in a column of eight, including solvent control. Serial 3-fold dilutions from 1 mM (100 μM final) in assay buffer−urea=7 dilutions+zero. Each 96-well plate can therefore accommodate 11 samples+1 Congo Red control (0.039-5 μM final in 2-fold steps). • 4) Seal the plate with aluminum film and incubate for 10 minutes on ice. • 5) Raise the temperature to 37° C. and incubate for 3 to 5 hours (depends on the lot of the peptide). • 6) Remove the aluminum film and add 250 μL/well of 5 μM thioflavin T (ThT) [T-3516, Sigma-Aldrich] in 50 mM glycine-NaOH, pH 8.5. Read fluorescence on a plate reader (ex=440 nm/20 nm; em=485 nm/20 nm) within 5 minutes. BAPA (Beta-Amyloid Peptide Aggregation)
# [4] = biological target: T3, Aβ (1-42) (Homo sapiens, UniProt P05067); test: BATYM assay (Aβ (1-42) aggregation, Thioflavin T fluorescence); details: Aβ 1-42 final concentration 100 μM, 37° C., 1 day, letter = synthetic lot
# T3 construct: Required Aβ (1-42) (California Peptide) was dried from its hexafluoroisopropanol (HFIP) stock solution; purchased California Peptide
# Method: Required Aβ (1-42) (California Peptide) was dried from its hexafluoroisopropanol (HFIP) stock solution. The Aβ (1-42) was dissolved in dimethylsulfoxide (DMSO) and then mixed with phosphate buffered saline (PBS) (pH 7.4). The mixed Aβ (1-42) solution was filtered with a 0.2 μm Omnipore membrane syringe filter Millipore, Bedford, Mass.). The compound to be tested in DMSO (50 times concentrate) was put into each well (0.5 μL/well) of a 96-well plate. The Aβ (1-42) solution was added into each well (24.5 μL/well). The plate was centrifuged at 1,000 g for 5 minutes and incubated at 37° C. for 1 day (Aβ 1-42; final concentration 100 μM).
# After incubation Thioflavin T (ThT) (30 μM) solution in glycine-NaOH buffer (pH 8.5, 50 mM) was added into each well (250 μL/well), fluorescence was measured (ex=440/20 nm, em=485/20 nm) using a fluorescence plate reader. The inhibitory activity was calculated as the reduction of fluorescence with the following formula: Inhibition (%)={(F(Aβ)−F(Aβ+compound)}/{F(Aβ)−[…]}×100
# The IC50s were calculated by a curve fitting program using the following equation. The data were obtained from two different experiments in triplicate.
# x=Concentration of tested compound (M),
# [5] = 30 μM soluble Aβ(1-40) + 125I-labeled Aβ(1-40), 37° C., 3 to 5 hours, replicate values, letter = synthetic lot, ppt = precipitate, V-shaped = inhibition followed by precipitation
# [6] = 30 μM soluble Aβ(1-40), 37° C., 3 to 5 hours, thioflavin T fluorescence, replicate values, letter = synthetic lot
# T1 sequence (P05067 672-711 limits assumed): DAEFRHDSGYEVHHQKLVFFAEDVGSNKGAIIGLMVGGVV
# T2 sequence (P05067 672-711 limits assumed): as above
# T3 sequence (P05067 672-713 limits assumed): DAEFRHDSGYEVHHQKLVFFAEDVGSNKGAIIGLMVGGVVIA
Compound,IC50 [1],IC50 [2],IC50 [3],IC50 [4],"IC50 [2, 5]","IC50 [3, 6]"
2-{4-[3-(3-Aminophenyl)propyl]phenylamino}benzoic acid [Example 23],17 µM,20 µM,2 µM,> 100 µM,–,–
"2-{4-[5-(3,4-Dichloro-phenyl)pentyl]phenylamino}methoxy-5-nitrobenzoic acid [Example 14]",> 10 µM,–,–,10.9 µM,18 µM and 8 µM and 6 µM and 7 µM,1 µM
"O=C(O)c1ccccc1Nc1ccc(CCc2ccc(Cl)c(Cl)c2)cc1 [Example 1, 2-{4-[2-(3,4-Dichlorophenyl)ethyl]phenylamino}-benzoic acid]",> 60 µM and 11 µM and > 100 µM and 86 µM,–,–,> 60 µM and 50 µM and 58.8 µM and 57.8 µM,> 100 µM (5×) and 52 µM and 10 µM,–
"O=C(O)c1ccccc1Nc1ccc(CCc2cc(O)c(O)c(O)c2)cc1 [Example 6, 2-{4-[2-(3,4,5-Trihydroxy-phenyl)-ethyl]phenylamino}benzoic acid]",> 60 µM,–,–,21.5 µM,15 µM and 21 µM and 20 µM and 40 µM,4 µM and 1 µM and 3 µM
COc1cc(Nc2ccc(CCCc3ccc(Cl)c(Cl)c3)cc2)c(C(=O)O)cc1[N+](=O)[O-] [Example 7],39 µM,–,–,8.83 µM,18 µM and 13 µM and 12 µM and 20 µM,2 µM
"O=C(O)c1ccccc1Nc1ccc(CCCCc2ccc(Cl)c(Cl)c2)cc1 [Example 10, 2-{4-[4-(3,4-Dichlorophenyl)butyl]phenylamino}benzoic acid]",67 µM,–,–,75.7 µM,70 µM and 50 µM,4 µM
"O=C(O)c1cc([N+](=O)[O-])ccc1Nc1ccc(CCCCc2ccc(Cl)c(Cl)c2)cc1 [Example 11, 2-{4-[4-(3,4-Dichloro-phenyl)-butyl]-phenylamino}-5-nitro-benzoic acid]",23 µM and 9 µM,–,–,5.62 µM and 6.78 µM,18 µM and 20 µM (2×) and > 100 µM (2×) and 21 µM and 30 µM,1 µM (3×) and 3 µM and 800 nM
"O=C(O)c1cc([N+](=O)[O-])cc([N+](=O)[O-])c1Nc1ccc(CCCCc2ccc(Cl)c(Cl)c2)cc1 [Example 12, 2-{4-[4-(3,4-Dichlorophenyl)butyl]phenylamino}-3,5-dinitrobenzoic acid]",> 60 µM,–,–,3.93 µM,20 µM,1 µM
O=C(O)c1ccccc1Nc1ccc(CCc2ccc(Cl)c(C(F)(F)F)c2)cc1 [Example 17],> 60 µM and 41 µM,> 100 µM,6.2 µM,64.5 µM,–,–
"CCN(CC)c1ccc(CCCc2ccc(Nc3ccccc3C(=O)O)cc2)cc1 [Example 19, 2-{4-[3-(4-Diethylaminophenyl)propyl]phenylamino}benzoic acid]",> 60 µM and 43 µM,–,–,31 µM and 34 µM,–,–
